# Experimental data reported in patent US5171837A, “Peptide capable of binding interleukin 6 and an adsorbent comprising the peptide immobilized on a carrier” (Kuraray Co., Ltd., priority 1989, dated 1992).
# Non-standard residues stand in square brackets, D forms with d. Residues, ends and D or L forms follow the SMILES beside them. No end group written: not given here. *: point of attachment. X1 = NCCCCCCCCCCCCCCCCCC(=O)*; 12Ado = NCCCCCCCCCCCC(=O)O
# Molecular target: T1, IL-6 (Homo sapiens, UniProt P05231)
# T1 construct: purchased Genzyme Corp
# Test: Activity for inhibition of binding of IL-6 to receptor by peptide (IL-6 receptor expression cells, FITC labeled anti-IL-6 antibody)
# Conditions: 5 μg of the peptide, 50 ng of IL-6, 10^5 IL-6 receptor expression cells, 4° C for one hour
# Protocol: A human lymphocyte fraction was obtained from human peripheral blood with Ficoll-Paque (manufactured by Pharmacia-LKB). The fraction was reacted with a cultured supernatant of Epstein-Barr Virus producing cell strain B958 to transform the human lymphocytes to obtain IL-6 receptor expression cells.
# 1 mg of anti-human IL-6 antibody [Rabbit Anti-human Interleukin-6, manufactured by Genzyme Corp.] was dissolved in a 0.05M carbonate buffer solution (pH: 9.5) and to the resulting solution was added 10 μg of FITC [Fluorescein isothiocyanate, manufactured by Sigma Corp.]. The mixture was stirred at 4° C. overnight. The resulting solution was passed through PD-10 column (manufactured by Pharmacia-LKB) to obtain FITC labeled anti-IL-6 antibody as a firstly eluted fraction.
# 10^5 IL-6 receptor expression cells were suspended in 0.5 % BSA (bovine serum albumin, manufactured by Sigma Corp.)-PBS (a phosphate buffer solution containing 0.15 M sodium chloride, pH 7.4) and to the resulting suspension were added 50 ng of IL-6 (Human recombinant interleukin-6, manufactured by Genzyme Corp.) and 5 μg of the peptide obtained in any one of Examples 1 to 96. The suspension was allowed to stand at 4° C for one hour. Then, after washing the cells centrifugally with 0.5% BSA-PBS three times (1200 rpm, 5 min.), 1 μg of FITC labeled anti-IL-6 antibody was added and the mixture was allowed to stand at 4° C. for 30 minutes. After washing with 0.5% BSA-PBS three times, the intensity of fluorescence of the cells was determined. The binding inhibition activity of the peptide of each Example was evaluated, by taking the value obtained without addition of the peptide as a control and taking the value- obtained without addition of IL-6 as a blank, according to the following formula: [formula]
# T1 sequence (P05231 30-212): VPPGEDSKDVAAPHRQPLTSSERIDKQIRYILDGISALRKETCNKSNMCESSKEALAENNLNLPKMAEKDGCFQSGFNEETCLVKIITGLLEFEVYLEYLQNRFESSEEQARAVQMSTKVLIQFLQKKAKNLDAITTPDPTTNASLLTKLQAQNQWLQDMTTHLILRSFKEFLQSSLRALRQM
row,Compound,Binding inhibition activity (%)
1,WQDPHSWNSSFYRLRFELRYRAERSK [Example 93],59
2,EEEWQDPHSWNSSFYRLRFELRYRAERSKKG-NH2 [Example 95],65
3,GTVHLLVDVPPEEPQLSCFRK [Example 13],25
4,CC[C@H](C)[C@H](NC(=O)[C@H](CC(N)=O)NC(=O)[C@H](CC(=O)O)NC(=O)[C@H](CC(=O)O)NC(=O)[C@H](CC(=O)O)NC(=O)[C@H](CCCCN)NC(=O)[C@H](CC(N)=O)NC(=O)[C@@H](NC(=O)[C@@H](NC(=O)[C@H](CC(C)C)NC(=O)[C@H](C)NC(=O)[C@H](CCC(N)=O)NC(=O)CCCCCCCCCCCN)[C@@H](C)O)[C@@H](C)O)C(=O)N[C@@H](CC(C)C)C(=O)N[C@@H](Cc1ccccc1)C(=O)N[C@@H](CCCNC(=N)N)C(=O)N[C@@H](CC(=O)O)C(=O)N[C@@H](CO)C(=O)N[C@@H](C)C(=O)N[C@@H](CCC(=O)O)C(=O)N[C@@H](CCC(=O)O)C(=O)N[C@@H](CCC(=O)O)C(=O)N[C@@H](CCC(=O)O)C(=O)N[C@@H](CCC(=O)O)C(=O)O [Example 27] (H-[12Ado]QALTTNKDDDNILFRDSAEEEEE-OH),48
5,HSWNSSFYRLRFELRYRAERSKK [Example 57],63
6,CC(C)C[C@H](NC(=O)[C@H](CCC(=O)O)NC(=O)[C@H](Cc1ccccc1)NC(=O)[C@H](CCCNC(=N)N)NC(=O)[C@H](CC(C)C)NC(=O)[C@H](CCCNC(=N)N)NC(=O)[C@H](Cc1ccc(O)cc1)NC(=O)[C@H](Cc1ccccc1)NC(=O)[C@H](CO)NC(=O)[C@H](CO)NC(=O)[C@H](CC(N)=O)NC(=O)[C@H](Cc1c[nH]c2ccccc12)NC(=O)[C@H](CO)NC(=O)[C@H](Cc1c[nH]cn1)NC(=O)CCCCCCCCCCCN)C(=O)N[C@@H](CCCNC(=N)N)C(=O)N[C@@H](Cc1ccc(O)cc1)C(=O)N[C@@H](CCCNC(=N)N)C(=O)N[C@@H](C)C(=O)N[C@@H](CCC(=O)O)C(=O)N[C@@H](CCCNC(=N)N)C(=O)N[C@@H](CO)C(=O)N[C@@H](CCCCN)C(=O)N[C@@H](CCC(=O)O)C(=O)N[C@@H](CCC(=O)O)C(=O)N[C@@H](CCC(=O)O)C(=O)N[C@@H](CCC(=O)O)C(=O)N[C@@H](CCC(=O)O)C(=O)O [Example 59] (H-[12Ado]HSWNSSFYRLRFELRYRAERSKEEEEE-OH),60
7,EEEQDPHSWNSSFYRLRFELRYRAERSKKG-NH2 [Example 87],72
8,KTSLPGDSVTLTCPGVEPEDD-NH2 [Example 6],36
9,EEERKFQNSPAEDFQEPCQYSQESKG-NH2 [Example 23],58
10,KKTSLPGDSVTLTCPGVEPED [Example 2],35
11,KGTVHLLVDVPPEEPQLSCFRKD-NH2 [Example 14],32
12,KHSWNSSFYRLRFELRYRAERSKD-NH2 [Example 62],50
13,QDPHSWNSSFYRLRFELRYRAERSKK [Example 81],76
14,CC(C)C[C@H](NC(=O)[C@H](CCC(=O)O)NC(=O)[C@H](Cc1ccccc1)NC(=O)[C@H](CCCNC(=N)N)NC(=O)[C@H](CC(C)C)NC(=O)[C@H](CCCNC(=N)N)NC(=O)[C@H](Cc1ccc(O)cc1)NC(=O)[C@H](Cc1ccccc1)NC(=O)[C@H](CO)NC(=O)[C@H](CO)NC(=O)[C@H](CC(N)=O)NC(=O)[C@H](Cc1c[nH]c2ccccc12)NC(=O)[C@H](CO)NC(=O)[C@H](Cc1c[nH]cn1)NC(=O)[C@@H]1CCCN1C(=O)[C@H](CC(=O)O)NC(=O)[C@H](CCC(N)=O)NC(=O)[C@H](Cc1c[nH]c2ccccc12)NC(=O)CCCCCCCCCCCCCCCCCN)C(=O)N[C@@H](CCCNC(=N)N)C(=O)N[C@@H](Cc1ccc(O)cc1)C(=O)N[C@@H](CCCNC(=N)N)C(=O)N[C@@H](C)C(=O)N[C@@H](CCC(=O)O)C(=O)N[C@@H](CCCNC(=N)N)C(=O)N[C@@H](CO)C(=O)N[C@@H](CCCCN)C(=O)NCC(=O)O [Example 92] (X1-WQDPHSWNSSFYRLRFELRYRAERSKG-OH),62
15,EEEWNSSFYRLRFELRYRAERSKKG-NH2 [Example 39],58
16,C[C@H](NC(=O)[C@@H]1CCCN1C(=O)[C@H](CO)NC(=O)[C@H](CC(N)=O)NC(=O)[C@H](CCC(N)=O)NC(=O)[C@H](Cc1ccccc1)NC(=O)[C@H](CCCCN)NC(=O)[C@H](CCCNC(=N)N)NC(=O)CCCCCCCCCCCCCCCCCN)C(=O)N[C@@H](CCC(=O)O)C(=O)N[C@@H](CC(=O)O)C(=O)N[C@@H](Cc1ccccc1)C(=O)N[C@@H](CCC(N)=O)C(=O)N[C@@H](CCC(=O)O)C(=O)N1CCC[C@H]1C(=O)N[C@@H](CS)C(=O)N[C@@H](CCC(N)=O)C(=O)N[C@@H](Cc1ccc(O)cc1)C(=O)N[C@@H](CO)C(=O)N[C@@H](CCC(N)=O)C(=O)N[C@@H](CCC(=O)O)C(=O)N[C@@H](CO)C(=O)NCC(=O)O [Example 20] (X1-RKFQNSPAEDFQEPCQYSQESG-OH),65
17,KKRKFQNSPAEDFQEPCQYSQES [Example 18],55
18,H-Thr-Ser-Leu-Pro-Gly-Ser-Val-Thr-Leu-Thr-Cys-Pro-Gly-Val-Glu-Pro-Glu-Asp- Lys-OH (H-TSLPGSVTLTCPGVEPEDK-OH) [Example 1],38
19,KWQDPHSWNSSFYRLRFELRYRAERSKD-NH2 [Example 94],63
20,KKHSWNSSFYRLRFELRYRAERSK [Example 58],60

# The next lines start with the values.
row,Binding inhibition activity (%),Compound
1,32,CC(C)C[C@H](NC(=O)[C@H](Cc1c[nH]c2ccccc12)NC(=O)[C@H](CCCNC(=N)N)NC(=O)[C@@H]1CCCN1C(=O)[C@H](CC(N)=O)NC(=O)CCCCCCCCCCCN)C(=O)N[C@@H](CO)C(=O)N[C@H](C(=O)N[C@H](C(=O)N[C@@H](Cc1c[nH]c2ccccc12)C(=O)N[C@@H](CCC(N)=O)C(=O)N[C@@H](CC(=O)O)C(=O)N1CCC[C@H]1C(=O)N[C@@H](Cc1c[nH]cn1)C(=O)N[C@@H](CO)C(=O)N[C@@H](CCC(=O)O)C(=O)N[C@@H](CCC(=O)O)C(=O)N[C@@H](CCC(=O)O)C(=O)N[C@@H](CCC(=O)O)C(=O)N[C@@H](CCC(=O)O)C(=O)O)[C@@H](C)O)C(C)C [Example 51] (H-[12Ado]NPRWLSVTWQDPHSEEEEE-OH)
2,38,EEETSLPGDSVTLTCPGVEPEDKG-NH2 [Example 7]
3,51,EEEHSWNSSFYRLRFELRYRAERSKKG-NH2 [Example 63]
4,46,KQALTTNKDDDNILFRDSAD-NH2 [Example 30]
5,71,DPHSWNSSFYRLRFELRYRAERSKK [Example 73]
6,60,QDPHSWNSSFYRLRFELRYRAERSK [Example 85]
7,68,PHSWNSSFYRLRFELRYRAERSKK [Example 65]
8,25,KKNPRWLSVTWQDPHS [Example 50]
9,60,RKFQNSPAEDFQEPCQYSQESK [Example 17]
10,31,DDDDDGTVHLLVDVPPEEPQLSCFRKAAG-NH2 [Example 16]
11,44,DDDDDQALTTNKDDDNILFRDSAAAG-NH2 [Example 32]
12,70,KKQDPHSWNSSFYRLRFELRYRAERSK [Example 82]
13,55,DDDDDHSWNSSFYRLRFELRYRAERSKAAG-NH2 [Example 64]
14,59,DDDDDDPHSWNSSFYRLRFELRYRAERSKAAG-NH2 [Example 80]
15,58,KQDPHSWNSSFYRLRFELRYRAERSKD-NH2 [Example 86]
16,30,GTVHLLVDVPPEEPQLSCFRKK [Example 9]
17,58,CC(C)C[C@H](NC(=O)[C@H](CCC(=O)O)NC(=O)[C@H](Cc1ccccc1)NC(=O)[C@H](CCCNC(=N)N)NC(=O)[C@H](CC(C)C)NC(=O)[C@H](CCCNC(=N)N)NC(=O)[C@H](Cc1ccc(O)cc1)NC(=O)[C@H](Cc1ccccc1)NC(=O)[C@H](CO)NC(=O)[C@H](CO)NC(=O)[C@H](CC(N)=O)NC(=O)[C@H](Cc1c[nH]c2ccccc12)NC(=O)[C@H](CO)NC(=O)[C@H](Cc1c[nH]cn1)NC(=O)CCCCCCCCCCCCCCCCCN)C(=O)N[C@@H](CCCNC(=N)N)C(=O)N[C@@H](Cc1ccc(O)cc1)C(=O)N[C@@H](CCCNC(=N)N)C(=O)N[C@@H](C)C(=O)N[C@@H](CCC(=O)O)C(=O)N[C@@H](CCCNC(=N)N)C(=O)N[C@@H](CO)C(=O)N[C@@H](CCCCN)C(=O)NCC(=O)O [Example 60] (X1-HSWNSSFYRLRFELRYRAERSKG-OH)
18,65,KKPHSWNSSFYRLRFELRYRAERSK [Example 66]
19,71,KKWQDPHSWNSSFYRLRFELRYRAERSK [Example 90]
20,37,DDDDDTSLPGDSVTLTCPGVEPEDAAG-NH2 [Example 8]
21,58,WNSSFYRLRFELRYRAERSKK [Example 33]
22,55,KKWNSSFYRLRFELRYRAERSK [Example 34]
